Assay [1] concerns the target T1, Human TRPA1 (hTRPA1) (Homo sapiens, UniProt O75762).
T1 construct: expressed in transfected cells
Put plainly: TRPA1 Activation Test 2: intracellular Ca2+ imaging assay 2-1 to 2-3, hTRPA1 stably expressing cell line. In kind it is cell-based. The conditions noted are these: for TRPA1 activation rates: Table 10; for Concentration dependence of TRPA1 activity (in words): additional experiments; for TRPA1 activating action (in words): hTRPA1 stably expressing cell line; for TRPA1 activation rate, With antagonist / TRPA1 activation rate, Without antagonist: Table 11. The method, then:
(§1) DNAs encoding genes described in the following Table 2 were inserted into pcDNA 5/TO vector (Invitrogen) to prepare various expression vectors.
(§2) These expression vectors were transfected into T-REx™_293 cells (Invitrogen) by a conventional method using Lipofectamine LTX (Invitrogen). Then, various transfectants were cultured and cloned by a conventional method using Dulbecco's Modified Eagle Medium (DMEM, Nacalai Tesque Inc.), containing 10% fetal bovine serum (FBS, Cytiva), […] of hygromycin B, and 5 μg/mL of blasticidin S, as a drug selection medium to obtain a hTRPA1 stably expressing cell line, a hTRPV1 stably expressing cell line, and a hTRPM8 stably expressing cell line.
(§3) A hTRPA1 stably expressing cell line in which expression of hTRPA1 had been induced in advance by a conventional method was prepared in a 96 well clear bottom plate, and the hTRPA1 activating action of rhein (produced by Tokyo Chemical Industry Co., Ltd.) was tested. Specifically, after each well was washed with PBS, 50 μL of an assay buffer (Hanks' balanced salt solution containing no calcium ion or magnesium ion that contained 1 mM of CaCl2 dihydrate, 20 mM of HEPES, and 0.1% BSA) containing calcium fluorescent indicator Calbryte™ 520 AM (produced by AAT Bioquest) in a final concentration of 4 μM was added, followed by incubating at 33° C. for 45 minutes. After washing with the assay buffer, 100 μL of the assay buffer was added to each well. This plate was set to FlexStation 3 (Molecular Devices, LLC), and a fluorescence intensity (excitation wavelength 490 nm, fluorescence wavelength 525 nm) at 31° C. was measured every two seconds, and 30 seconds after the start of the measurement, 100 μL of an assay buffer containing a test sample (allyl isothiocyanate (AITC) of positive control or rhein) which was prepared to have a certain final concentration or DMSO was added. Then, a well in which an assay buffer containing ionomycin (having a final concentration of 10 μM after the addition) instead of the test samples was added was also prepared as a reference for fluorescence intensity.
(§4) The measurement was continued from the start of the measurement up to 120 seconds, and the TRPA1 activation ability of the test samples was calculated in accordance with the following formula.
Activation rate (%)=(Fmax[s]−F0)/(Fmax[i]−F0)×100 • Fmax[s]: The maximum value of the fluorescence intensity when the test sample or positive control was added • F0: The average value of the fluorescence intensity for 20 seconds after the start of the measurement (base line) • Fmax[i]: The maximum value of the fluorescence intensity when ionomycin was added
The TRPA1 activation ability of each test sample was measured in the same manner as in the above (2) except the test was conducted with A-967079 (1 μM), which is a TRPA1-specific antagonist, or without A-967079. In addition, intracellular Ca^2+ imaging assay was conducted in the same manner as in the above (2) except that a hTRPV1 stably expressing cell line, a hTRPM8 stably expressing cell line, or a Mock cell was used instead of the hTRPA1 stably expressing cell line. Note that capsaicin was used as positive control for the hTRPV1 stably expressing cell line, and icilin was used as positive control for the hTRPM8 stably expressing cell line.
A TRPA1 activation ability was measured in the same manner as in the above (2) by using, as a test sample, rhein or compounds described in the following Table 10, which had anthraquinone structures similar to rhein, at a concentration of 200 μM of the test sample.

Assay [2] can be described thus: Anorexia Improving Test 3: cumulative amounts of food ingested of mice, rhein with or without A-967079. In kind it is in vivo. The following applies: oral, rhein 100 μmol/kg body weight, A-967079 10 μmol/kg body weight. Here is the method:
Male ICR mice were housed in individual cages in which ALPHA-dri (Shepherd Specialty Papers) was laid, and were acclimatized and raised for at least one week or more while a powder feed (CE-2, CLEA Japan, Inc.) was given to the mice by using a powder feeder for mice (SN-950, Shinano Manufacturing Co., Ltd.). Then, for several days before the experiment, handling and oral administration training using a feeding needle (FG4202, Fuchigami Kikai Co., Ltd.) were conducted every day. To 9 week-old mice under ad libitum feeding conditions, a carrier solution (containing 2% of dimethyl sulfoxide and 98% of a 0.5% methyl cellulose solution in volume ratio) or a rhein solution (obtained by dissolving 8.53 mg of rhein in 1 mL of the carrier solution) was orally administered from 9:20 a.m. (10 mL/kg body weight). The dosage of rhein was 300 μmol/kg body weight in terms of molar concentration. Then, a feeder the mass of which had been measured in advance was set in the cage at 9:30 a.m. The masses of the feeder and the feed spilled in the cage 0.5, 1, 2, and 3 hours after the start of the feeding experiment were measured, and the ingested mass (g) at each time was measured (n=6). The ingested mass (g) of each mouse was measured in the same manner as in anorexia improving test 2 (the above item 5) except that 10 mL/kg body weight of a carrier solution, a rhein solution (100 μmol/kg body weight), an A-967079 solution (10 μmol/kg body weight), or a mixed solution of A-967079 and rhein (in 10 μmol/kg body weight and 100 μmol/kg body weight, respectively) was orally administered to the mouse. Results obtained by calculating the cumulative amounts of food ingested and conducting a multiple comparison (multiple t-test) by the Dunn-Bonferroni method are shown in Table 12.

Assay [3] addresses T1, Human TRPA1 (hTRPA1). As to the kind of experiment: TRPA1 Activation Test 1: intracellular Ca2+ imaging assay 1-1 to 1-3, hTRPA1 stably expressing cell line. The following applies: for TRPA1 activating action with TRPA1-specific antagonist (in words) / TRPA1 activation rate, With antagonist: A-967079 1 μM; for TRPA1 activating action (in words): hTRPA1 stably expressing cell line; for TRPA1 activation rate, With antagonist / TRPA1 activation rate, Without antagonist: Table 6. In kind it is cell-based. The method, then: as §1, §2
as §3, with “bottom plate (black),” for “bottom plate,”, “and a” for “and the”, “of the purified oxylipin or the R2 fraction (both were assumed to contain a compound having a molecular weight of 294) obtained in the above item 1” for “of rhein (produced by Tokyo Chemical Industry Co., Ltd.)”, “calcium ions” for “calcium ion”, “magnesium ions” for “magnesium ion”, “sample” for “sample (allyl isothiocyanate (AITC) of positive control or rhein)”
as §4
Activation rate (%)=(Fmax[s]−F0)/(Fmax[i]−F0)×100 • Fmax[s]: The maximum value of the fluorescence intensity when the test sample or the positive control was added • F0: The average value of the fluorescence intensity for 20 seconds after the start of the measurement (base line) • Fmax[i]: The maximum value of the fluorescence intensity when ionomycin was added
The TRPA1 activation ability was measured in the same manner as in the above (2) except that the R2 fraction or allyl isothiocyanate (AITC) was used as a test sample and the test was conducted with A-967079 (1 μM), which is a TRPA1-specific antagonist, or without A-967079. In addition, regarding the R2 fraction, the hTRPV1 stably expressing cell line or the hTRPM8 stably expressing cell line was used instead of the hTRPA1 stably expressing cell line to conduct the same test. Note that as positive controls, capsaicin was used for the hTRPV1 stably expressing cell line and icilin was used for the hTRPM8 stably expressing cell line.
The TRPA1 activation ability was measured in the same manner as in the above (2) except that each isolated compound or allyl isothiocyanate (AITC) was used as a test sample and the test was conducted with A-967079 (1 μM), which was a TRPA1-specific antagonist, or without A-967079.

T1 sequence (O75762 whole entry): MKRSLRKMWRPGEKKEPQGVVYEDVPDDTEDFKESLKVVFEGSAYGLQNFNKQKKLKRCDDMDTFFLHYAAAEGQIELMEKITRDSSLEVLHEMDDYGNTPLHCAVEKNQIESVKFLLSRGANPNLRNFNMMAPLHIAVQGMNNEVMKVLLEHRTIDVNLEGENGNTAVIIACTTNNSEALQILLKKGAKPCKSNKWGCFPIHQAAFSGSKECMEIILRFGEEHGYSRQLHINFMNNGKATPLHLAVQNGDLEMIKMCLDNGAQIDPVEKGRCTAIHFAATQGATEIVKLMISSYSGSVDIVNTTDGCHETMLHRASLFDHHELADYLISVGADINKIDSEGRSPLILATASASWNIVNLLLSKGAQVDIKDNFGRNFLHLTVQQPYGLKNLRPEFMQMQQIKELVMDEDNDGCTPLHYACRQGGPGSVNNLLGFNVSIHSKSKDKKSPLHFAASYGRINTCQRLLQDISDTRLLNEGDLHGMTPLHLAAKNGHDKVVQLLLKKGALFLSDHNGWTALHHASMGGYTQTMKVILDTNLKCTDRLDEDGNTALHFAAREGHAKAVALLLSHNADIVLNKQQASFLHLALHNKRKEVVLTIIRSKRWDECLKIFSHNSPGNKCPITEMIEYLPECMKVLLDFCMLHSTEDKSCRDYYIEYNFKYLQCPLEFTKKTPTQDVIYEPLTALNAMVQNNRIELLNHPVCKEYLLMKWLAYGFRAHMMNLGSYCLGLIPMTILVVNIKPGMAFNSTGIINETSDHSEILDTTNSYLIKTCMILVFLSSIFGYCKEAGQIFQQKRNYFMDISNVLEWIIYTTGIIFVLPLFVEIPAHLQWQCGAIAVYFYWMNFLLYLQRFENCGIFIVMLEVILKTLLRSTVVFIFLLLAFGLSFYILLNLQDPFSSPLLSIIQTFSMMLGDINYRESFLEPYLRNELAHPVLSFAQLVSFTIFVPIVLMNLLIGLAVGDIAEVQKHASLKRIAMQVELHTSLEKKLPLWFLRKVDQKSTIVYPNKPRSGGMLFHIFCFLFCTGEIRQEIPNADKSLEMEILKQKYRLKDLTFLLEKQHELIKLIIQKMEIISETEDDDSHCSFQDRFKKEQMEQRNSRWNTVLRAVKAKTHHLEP

Regarding `O=C1c2cccc(O)c2C(=O)c2cccc(O)c21` [Anthrarufin, reference compound], the TRPA1 activation rates on Human TRPA1 (hTRPA1) [1] (test sample 200 μM) amounted to 0.587 ± 0.0172%.
The molecule `Cc1cc(O)c2c(c1)C(=O)c1cccc(O)c1C2=O` [Chrysophanol, reference compound] yielded a TRPA1 activation rates at Human TRPA1 (hTRPA1) [1] (test sample 200 μM) of 3.27 ± 0.439%.
As to `CCC(=N\O)/C(C)=C/c1ccc(F)cc1` [Compound A-967079, reference compound], the “Cumulative amounts of food ingested of mice” value in assay [2] (0.5 hour after the administration) is given as 0.026 ± 0.0093 g; in assay [2] (1 hour after the administration), 0.042 ± 0.015 g; in assay [2] (2 hours after the administration), 0.088 ± 0.027 g; in assay [2] (3 hours after the administration), 0.20 ± 0.066 g.
For the molecule `CC/C=C/CC(O)/C=C/C=C\CCCCCCCC(=O)O` (stereo not drawn) [Compound R1-2], at Human TRPA1 (hTRPA1) [3], the “TRPA1 activating action with TRPA1-specific antagonist (in words)” value was “inhibited by the TRPA1-specific antagonist” and the “TRPA1 activating action (in words)” value was “exhibited the TRPA1 activating action”. Further, at Human TRPA1 (hTRPA1) [3] (test sample 200 μM), the “TRPA1 activation rate, With antagonist” value was determined as 1.75 ± 0.443% and the “TRPA1 activation rate, Without antagonist” value is 32.0 ± 1.40%. In addition, on Human TRPA1 (hTRPA1) [3] (test sample 500 μM), the “TRPA1 activation rate, With antagonist” value was 8.24 ± 1.13% and the “TRPA1 activation rate, Without antagonist” value stood at 95.9 ± 1.79%.
In the case of `CCC(O)/C=C/C=C\C/C=C\CCCCCCCC(=O)O` (stereo not drawn) [Compound R2-2], on Human TRPA1 (hTRPA1) [3], the “TRPA1 activating action with TRPA1-specific antagonist (in words)” value is reported as “inhibited by the TRPA1-specific antagonist” and the “TRPA1 activating action (in words)” value is recorded as “exhibited the TRPA1 activating action”. Also, at Human TRPA1 (hTRPA1) [3] (test sample 200 μM), the “TRPA1 activation rate, With antagonist” value turned out to be 0.71 ± 0.0743% and the “TRPA1 activation rate, Without antagonist” value is on record as 21.6 ± 5.63%. At Human TRPA1 (hTRPA1) [3] (test sample 500 μM), the “TRPA1 activation rate, With antagonist” value was determined as 1.96 ± 0.548% and the “TRPA1 activation rate, Without antagonist” value was 77.5 ± 0.988%.
As to `CC/C=C\C/C=C\C=C\C(O)CCCCCCCC(=O)O` (stereo not drawn) [Compound R3], at Human TRPA1 (hTRPA1) [3], the “TRPA1 activating action with TRPA1-specific antagonist (in words)” value is recorded as “inhibited by the TRPA1-specific antagonist” and the “TRPA1 activating action (in words)” value is reported as “exhibited the TRPA1 activating action”. On Human TRPA1 (hTRPA1) [3] (test sample 200 μM), the “TRPA1 activation rate, With antagonist” value amounted to 0.58 ± 0.0564% and the “TRPA1 activation rate, Without antagonist” value came out at 16.3 ± 0.812%. At Human TRPA1 (hTRPA1) [3] (test sample 500 μM), the “TRPA1 activation rate, With antagonist” value came out at 0.731 ± 0.237% and the “TRPA1 activation rate, Without antagonist” value is listed as 93.6 ± 1.92%.
For `O=C1c2cccc(O)c2C(=O)c2c(O)cccc21` [Dantron, reference compound], the TRPA1 activation rates at Human TRPA1 (hTRPA1) [1] (test sample 200 μM) is 4.72 ± 0.762%.
For `Cc1cc(O)c2c(c1)C(=O)c1cc(O)cc(O)c1C2=O` [Emodin, emodin], the “TRPA1 activating action with TRPA1-specific antagonist (in words)” value on Human TRPA1 (hTRPA1) [1] (A-967079) is given as “inhibited by A-967079”. The “Concentration dependence of TRPA1 activity (in words)” value (“Concentration dependence” below) at Human TRPA1 (hTRPA1) [1] is “exhibited TRPA1 activity in concentration dependent manner”. The “TRPA1 activating action (in words)” value on Human TRPA1 (hTRPA1) [1] is recorded as “exhibited TRPA1 activating actions”. The “TRPA1 activation rate, With antagonist” value at Human TRPA1 (hTRPA1) [1] (test sample 100 μM, A-967079) is 0.881 ± 0.134 %; at Human TRPA1 (hTRPA1) [1] (test sample 200 μM, A-967079) it was 2.96 ± 0.246 %; at Human TRPA1 (hTRPA1) [1] (test sample 400 μM, A-967079), 6.25 ± 1.70 %. Further, the “TRPA1 activation rate, Without antagonist” value stood at 49.4 ± 1.41% on Human TRPA1 (hTRPA1) [1] (test sample 100 μM), 64.8 ± 3.73% on Human TRPA1 (hTRPA1) [1] (test sample 200 μM) and 71.29 ± 1.08% at Human TRPA1 (hTRPA1) [1] (test sample 400 μM). On Human TRPA1 (hTRPA1) [1] (test sample 200 μM), this molecule gave a TRPA1 activation rates of 43.1 ± 1.72%.
The molecule `O=C(O)c1cc(O)c2c(c1)[C@H]([C@H]1c3cc(C(=O)O)cc(O)c3C(=O)c3c(O[C@@H]4O[C@H](CO)[C@@H](O)[C@H](O)[C@H]4O)cccc31)c1cccc(O[C@@H]3O[C@H](CO)[C@@H](O)[C@H](O)[C@H]3O)c1C2=O` [Sennoside A, reference compound] came in with a TRPA1 activation rates at Human TRPA1 (hTRPA1) [1] (test sample 200 μM) of 3.33 ± 0.705%.
Take aloe-emodin: at Human TRPA1 (hTRPA1) [1], the “Concentration dependence” value is “exhibited TRPA1 activity in concentration dependent manner” and the “TRPA1 activating action (in words)” value is “exhibited TRPA1 activating actions”. On Human TRPA1 (hTRPA1) [1] (test sample 200 μM), the TRPA1 activation rates amounted to 15.3 ± 0.743%.
In the case of physcion, on Human TRPA1 (hTRPA1) [1], the “Concentration dependence” value is listed as “exhibited TRPA1 activity in concentration dependent manner” and the “TRPA1 activating action (in words)” value was “exhibited TRPA1 activating actions”. On Human TRPA1 (hTRPA1) [1] (test sample 200 μM), this molecule returned a TRPA1 activation rates of 24.3 ± 0.760%.

Values taken from patent US20250009697A1, “COMPOSITION FOR INCREASING AMOUNT OF FOOD INGESTED AND/OR IMPROVING ANOREXIA, AND COMPOSITION FOR ACTIVATING TRANSIENT RECEPTOR POTENTIAL ANKYRIN 1” (HOUSE FOODS GROUP INC., priority 2021, published 2025).
